{
  "source": "patent US20220143184A1",
  "about": "“MITOCHONDRION/RIBONUCLEIC ACID-TARGETED AND MIGRATABLE PHOTOSENSITIZED PROBE AND APPLICATION THEREOF” (SHENZHEN INSTITUTES OF ADVANCED TECHNOLOGY, priority 2019, published 2022)",
  "key": {"[1]": {"system": "HeLa cells", "assay": "Fluorescence imaging of live HeLa cells stained with the probe, before and after light irradiation (Example 3)", "assay_type": "cell-based", "conditions": "10 μM", "experimental": "The following three groups of experiments were performed: (1) The cells were stained in darkness for 30 min, and then irradiated by a white light of the mercury lamp for 5 min; (2) The cells were stained in darkness for 30 min, without light irradiation. (1) The cells were stained in darkness for 10 min. (2) The cells were stained in darkness for 30 min. (3) The cells were stained in darkness for 60 min. (4) The cells were stained in darkness for 120 min. (1) The cells were stained for 30 min, and then irradiated by light at 510-560 nm for 10 seconds. (2) The cells were stained for 30 min, and then irradiated by light at 510-560 nm for 1 minute. (3) The cells were stained for 30 min, and then irradiated by light at 510-560 nm for 2 min. (4) The cells were stained for 30 min, and then irradiated by light at 510-560 nm for 3 min. (5) The cells were stained for 30 min, and then irradiated by light at 510-560 nm for 4 min. (6) The cells were stained for 30 min, and then irradiated by light at 510-560 nm for 5 min. The stained cells were observed under a fluorescence microscope and a confocal laser scanning microscope and the stained regions, fluorescence distributions, and intensity changes in cells were recorded."}, "[2]": {"assay": "Singlet oxygen generation in aqueous solution, ABDA absorbance (Example 8, Experiment 2)", "assay_type": "physicochemical", "conditions": "for absorbance of ABDA at 378 nm with light irradiation: 50 μM ABDA, white light 300 mW/cm^2, 0-6 min", "experimental": "(§1) Different reactive oxygen indicators were added to the photosensitized probe aqueous solution, and the fluorescence or absorption spectra were measured. Four experiments were conducted as follows:\n50 μM ABDA was added to the aqueous solutions of PBS, 2 μM photosensitized probe, 2 μM photosensitized probe+0.8 mM RNA, and 2 μM RB (a commercial singlet oxygen-generating photosensitizer). These solutions were irradiated for 0-6 min with the white light (300 mW/cm^2) of the xenon lamp, absorption spectra at 300-600 nm were measured, and the absorbance values at 378 nm were recorded to indicate the generation rate of singlet oxygen."}, "[3]": {"assay": "Oxygenous radicals by electron spin resonance with DMPO (Example 8, Experiment 4)", "assay_type": "physicochemical", "conditions": "white light 300 mW/cm^2, 5 min", "experimental": "as §1\nDMPO was added to the aqueous solutions of RNA, 2 μM photosensitized probe of the application, 2 μM photosensitized probe+0.8 mM RNA. These solutions were irradiated for 5 min by the white light (300 mW/cm^2) of the xenon lamp. The electron spin resonance spectra before and after irradiation were measured, and the signal intensities indicate the amount of hydroxyl radicals."}, "[4]": {"system": "Ribonucleic acid (RNA)", "assay": "Specific fluorescence recognition of biomolecules in solution (Example 13)", "assay_type": "binding", "conditions": "2 μM probe", "experimental": "After interaction for 5 min, the fluorescence spectra under excitation at 500 nm were measured, and the fluorescence intensities at 600 nm were recorded. Biomolecules include: Ribonucleic acid (RNA, 1.6 mM), deoxyribonucleic acid (DNA, 1.6 mM), amino acids (10 mM), hydrogen peroxide (10 mM), and metal ions (10 mM); in which, the amino acids include: Glutathione (GSH), homocysteine (Hcy), cysteine (Cys), glycine […], alanine (Ala), norvaline (Nor), glutamate (Glu), histidine (his), isoleucine (Iso), leucine (Leu), methionine (Met), phenylalanine (Phe), proline (Pro), serine (Ser), threonine (Thr), tryptophan (Try), and tyrosine (Tyr); and the metal ions include: Ca^2+, Fe^3+, Mg^2+, and Zn^2+."}, "[5]": {"system": "ribonucleic acid", "assay": "Binding mode with ribonucleic acid, circular dichroism spectra (Example 14)", "conditions": "10 μM in PBS, 5 min", "protocol": "10 μM (E)-4-(2-(5-methoxy-1H-indole-3-)vinyl)-1-methylquinolinium iodide was mixed with ribonucleic acid and deoxyribonucleic acid in PBS for 5 min, and the circular dichroism spectra were measured."}},
  "data": [
    {"compound": "COc1ccc2[nH]cc(/C=C/c3cc[n+](C)c4ccccc34)c2c1.[I-]", "note": "[photosensitized probe 1, (E)-4-(2-(5-methoxy-1H-indole-3-)vinyl)-1-methylquinolinium iodide]", "values": [
      {"measurement": "fluorescence of live cells stained in darkness with increasing incubation time", "setting": "[1]; darkness 10-120 min", "value": "relatively weak red fluorescence only in the cytoplasm regions"},
      {"measurement": "fluorescence with increasing light irradiation time", "setting": "[1]; stained 30 min, 510-560 nm green light 10 s-5 min", "value": "the fluorescence gradually increases"},
      {"measurement": "fluorescence of live cells after light irradiation", "setting": "[1]; stained 30 min, mercury lamp white light 5 min, 488 nm excitation", "value": "strong red fluorescence in the cytoplasm and nucleolus region"},
      {"measurement": "fluorescence of live cells without light irradiation", "setting": "[1]; stained in darkness 30 min, 488 nm excitation, confocal", "value": "weak red fluorescence only in the cytoplasm region"},
      {"measurement": "absorbance of ABDA at 378 nm with light irradiation", "setting": "[2]; 2 μM probe + 0.8 mM RNA", "value": "slight decrease"},
      {"measurement": "singlet oxygen generation compared with RB", "setting": "[2]; 2 μM, white light 300 mW/cm^2", "value": "generates less singlet oxygen"},
      {"measurement": "absorbance of ABDA at 378 nm with light irradiation", "setting": "[2]; 2 μM, without RNA", "value": "slight decrease"},
      {"measurement": "oxygenous radicals generation (ESR)", "setting": "[3]; 2 μM probe + 0.8 mM RNA", "value": "more oxygenous radicals can be generated"},
      {"measurement": "oxygenous radicals generation (ESR)", "setting": "[3]; 2 μM probe alone", "value": "can effectively generate oxygenous radicals"},
      {"measurement": "increase of fluorescence intensity after binding with ribonucleic acid compared with the probe itself", "setting": "[4]; RNA 1.6 mM in PBS, 5 min, excitation 500 nm, emission 600 nm", "value": "more than 100 times"},
      {"measurement": "fluorescence with RNA compared with deoxyribonucleic acid", "setting": "[4]; RNA 1.6 mM, DNA 1.6 mM", "value": "significantly stronger than that of the probe after binding with deoxyribonucleic acid"},
      {"measurement": "fluorescence response to other biomolecules", "setting": "[4]; amino acids, hydrogen peroxide, metal ions 10 mM", "value": "no obvious fluorescence response"},
      {"measurement": "binding mode with ribonucleic acid", "setting": "[5]", "value": "minor groove binding"},
      {"measurement": "circular dichroism spectrum after being mixed with DNA", "setting": "[5]", "value": "no obvious change"},
      {"measurement": "circular dichroism spectrum after being mixed with RNA", "setting": "[5]", "value": "negative Cotton effect"}
    ]}
  ]
}
